Results from PubChem BioAssay AID330 (DTP/NCI, 2004).
Several values for one entry are separate records, joined by “and”; a condition that tells them apart may be missing. Equal entries are not always repeated. Toxic doses and inconclusive results are not listed. The calls were made as follows: active = survival T/C of 150% or more; inactive = T/C below 125% in these data. Peptide text beside a SMILES is read from it. * marks the point of attachment. For = O=C*

System: P388 leukemia ip, CD2F1 mice, survival T/C
Test: NCI In Vivo Anticancer Drug Screen. Data for tumor model P388 Leukemia (intraperitoneal) in CD2F1 (CDF1) mice
Conditions: endpoint: median survival time, higher = longer survival
How it was run: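 Mice carrying the transplanted tumor received test compound or vehicle. Survival was recorded in each group, and the value is the treated-group measurement divided by that of the vehicle-treated control group.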

[1] = dose: 60.0 mg/kg/injection, schedule: Q01DX005 (ip), vehicle: Klucel (hydroxypropylcellulose) (HPC)
[2] = dose: 240.0 mg/kg/injection, schedule: Q01DX005 (ip), vehicle: Klucel (hydroxypropylcellulose) (HPC)
[3] = dose: 50.0 mg/kg/injection, schedule: Q01DX009 (ip), vehicle: saline
[4] = dose: 100.0 mg/kg/injection, schedule: Q01DX009 (ip), vehicle: saline
[5] = dose: 50.0 mg/kg/injection, schedule: Q01DX009 (ip), vehicle: Klucel (hydroxypropylcellulose) (HPC)
[6] = dose: 100.0 mg/kg/injection, schedule: Q01DX009 (ip), vehicle: Klucel (hydroxypropylcellulose) (HPC)
[7] = dose: 200.0 mg/kg/injection, schedule: Q01DX009 (ip), vehicle: Klucel (hydroxypropylcellulose) (HPC)
[8] = dose: 50.0 mg/kg/injection, schedule: Q01DX005 (ip), vehicle: saline with Tween-80
[9] = dose: 100.0 mg/kg/injection, schedule: Q01DX005 (ip), vehicle: saline with Tween-80
[10] = dose: 200.0 mg/kg/injection, schedule: Q01DX005 (ip), vehicle: saline with Tween-80
[11] = dose: 12.5 mg/kg/injection, schedule: Q01DX009 (ip), vehicle: saline with Tween-80
[12] = dose: 25.0 mg/kg/injection, schedule: Q01DX009 (ip), vehicle: saline with Tween-80
[13] = dose: 100.0 mg/kg/injection, schedule: Q01DX005 (ip), vehicle: Klucel (hydroxypropylcellulose) (HPC)
[14] = dose: 200.0 mg/kg/injection, schedule: Q01DX005 (ip), vehicle: Klucel (hydroxypropylcellulose) (HPC)
[15] = dose: 50.0 mg/kg/injection, schedule: Q01DX009 (ip), vehicle: saline with Tween-80
[16] = dose: 100.0 mg/kg/injection, schedule: Q01DX009 (ip), vehicle: saline with Tween-80
[17] = dose: 200.0 mg/kg/injection, schedule: Q01DX009 (ip), vehicle: saline with Tween-80
[18] = dose: 100.0 mg/kg/injection, schedule: Q04DX003 (ip), vehicle: saline

Measured: T/C

C1CC[C@@]2([C@]34CCCC[C@H]3O4)O[C@H]2C1
inactive: [1] 99 % of control | dose: 120.0 mg/kg/injection, schedule: Q01DX005 (ip), vehicle: Klucel (hydroxypropylcellulose) (HPC) 98 % of control | [2] 95 % of control and 96 % of control

CC1(C)CC(Nc2ncnc3c2ncn3C2OC(CO)C(O)C2O)CC(C)(C)N1O (configuration not stated)
inactive: [3] 96 % of control | [4] 95 % of control | dose: 200.0 mg/kg/injection, schedule: Q01DX009 (ip), vehicle: saline 94 % of control

S=C1CC(c2ccc(Sc3ccccc3)cc2)=Nc2ccccc2N1
inactive: dose: 25.0 mg/kg/injection, schedule: Q01DX009 (ip), vehicle: Klucel (hydroxypropylcellulose) (HPC) 90 % of control | [5] 90 % of control | [6] 99 % of control and 87 % of control | [7] 100 % of control

Oc1ccc(N=Nc2ccc3c4c(cccc24)-c2ccccc2-3)c2cccnc12
inactive: [5] 99 % of control | [6] 102 % of control | [7] 114 % of control

CN(C)C1C(O)C2Oc3c(cc(O)c4c3C(=O)c3cc5c(c(O)c3C4=O)C(N)CC(C)(O)C5)C(C)(O2)C1O (configuration not stated)
inactive: dose: 5.0 mg/kg/injection, schedule: Q01DX009 (ip), vehicle: other 118 % of control

CCC1(CC)NC(=O)[C@H](C)N1S(C)(=O)=O
inactive: [8] 100 % of control | [9] 96 % of control | [10] 89 % of control

Nc1nc(=S)c2n[nH]nc2[nH]1
inactive: dose: 11.0 mg/kg/injection, schedule: Q01DX009 (ip), vehicle: saline with Tween-80 101 % of control and 105 % of control | [11] 104 % of control | dose: 16.5 mg/kg/injection, schedule: Q01DX009 (ip), vehicle: saline with Tween-80 98 % of control and 103 % of control | [12] 103 % of control and 91 % of control | dose: 37.5 mg/kg/injection, schedule: Q01DX009 (ip), vehicle: saline with Tween-80 98 % of control and 101 % of control

COc1ccc2c(c1)CCC(c1nc3ccc(C)cc3[nH]c1=O)C2=O (configuration not stated)
inactive: dose: 60.0 mg/kg/injection, schedule: Q01DX005 (ip), vehicle: saline with Tween-80 103 % of control | dose: 120.0 mg/kg/injection, schedule: Q01DX005 (ip), vehicle: saline with Tween-80 108 % of control

O=C1NCC(=O)N2CCCC12 (configuration not stated)
inactive: dose: 60.0 mg/kg/injection, schedule: Q01DX005 (ip), vehicle: saline 99 % of control | dose: 120.0 mg/kg/injection, schedule: Q01DX005 (ip), vehicle: saline 100 % of control | dose: 240.0 mg/kg/injection, schedule: Q01DX005 (ip), vehicle: saline 107 % of control

O=C(Nc1ccc([N+](=O)[O-])cc1)Nc1nncs1
inactive: dose: 12.5 mg/kg/injection, schedule: Q01DX009 (ip), vehicle: distilled water + Tween-80 100 % of control | dose: 25.0 mg/kg/injection, schedule: Q01DX009 (ip), vehicle: distilled water + Tween-80 107 % of control and 92 % of control | dose: 50.0 mg/kg/injection, schedule: Q01DX009 (ip), vehicle: distilled water + Tween-80 115 % of control and 119 % of control | dose: 100.0 mg/kg/injection, schedule: Q01DX009 (ip), vehicle: distilled water + Tween-80 119 % of control and 124 % of control | dose: 200.0 mg/kg/injection, schedule: Q01DX009 (ip), vehicle: distilled water + Tween-80 110 % of control

COC[N+](C)(C)c1ccc(/C=C/C=O)cc1
inactive: dose: 12.5 mg/kg/injection, schedule: Q01DX009 (ip), vehicle: saline 114 % of control | dose: 25.0 mg/kg/injection, schedule: Q01DX009 (ip), vehicle: saline 109 % of control | [3] 118 % of control and 98 % of control

N#CCCN(CCC#N)Cc1c(O)ccc2ccccc12
inactive: [8] 104 % of control | [9] 114 % of control | [10] 117 % of control

O=S1(=O)CCC(N(/N=C/c2ccco2)c2ccccc2)C1 (configuration not stated)
inactive: [8] 95 % of control | [9] 101 % of control | [10] 101 % of control

CSCCC(NC(=O)C(Cc1ccccc1)NC=O)C(=O)O (stereo not drawn) (For-Phe-Met-OH; configuration not given here)
inactive: [8] 108 % of control | [9] 103 % of control | [10] 104 % of control

Fc1ccc(Nc2c3ccccc3nc3c2cnn3-c2ccccc2)cc1
inactive: dose: 50.0 mg/kg/injection, schedule: Q01DX005 (ip), vehicle: Klucel (hydroxypropylcellulose) (HPC) 91 % of control | [1] 86 % of control | [13] 87 % of control | [14] 87 % of control | [2] 90 % of control

CC(=O)Nc1ccc(C(C)=O)cc1
inactive: [15] 93 % of control | [16] 89 % of control | [17] 94 % of control

Cc1cc(Cl)ccc1N=C(N)N
inactive: [11] 100 % of control | [12] 101 % of control | [15] 99 % of control and 107 % of control

COC1=C(N)C(=O)c2nc(-c3ccccc3N)ccc2C1=O
inactive: [3] 121 % of control | [4] 120 % of control

CN(C)C[C@@H]1OCCOCCO[C@@H](CN(C)C)[C@H](CN(C)C)OCCOCCO[C@H]1CN(C)C
inactive: dose: 50.0 mg/kg/injection, schedule: Q01DX005 (ip), vehicle: saline 98 % of control | dose: 100.0 mg/kg/injection, schedule: Q01DX005 (ip), vehicle: saline 88 % of control | dose: 200.0 mg/kg/injection, schedule: Q01DX005 (ip), vehicle: saline 90 % of control

O=C1c2ccccc2C(=O)c2c1oc1c2ccc2ccccc21
inactive: [11] 98 % of control | [12] 92 % of control | [15] 99 % of control | [16] 87 % of control

CC(=O)OC(C)C(C)N(C)C (configuration not stated)
inactive: [18] 94 % of control | dose: 200.0 mg/kg/injection, schedule: Q04DX003 (ip), vehicle: saline 101 % of control

FC(F)(F)c1ccc2c(c1)Nc1ccccc1S2
inactive: dose: 12.5 mg/kg/injection, schedule: Q04DX003 (ip), vehicle: Klucel (hydroxypropylcellulose) (HPC) 100 % of control and 105 % of control | dose: 25.0 mg/kg/injection, schedule: Q04DX003 (ip), vehicle: Klucel (hydroxypropylcellulose) (HPC) 103 % of control | dose: 50.0 mg/kg/injection, schedule: Q04DX003 (ip), vehicle: Klucel (hydroxypropylcellulose) (HPC) 108 % of control and 109 % of control | dose: 100.0 mg/kg/injection, schedule: Q04DX003 (ip), vehicle: Klucel (hydroxypropylcellulose) (HPC) 108 % of control and 118 % of control | dose: 200.0 mg/kg/injection, schedule: Q04DX003 (ip), vehicle: Klucel (hydroxypropylcellulose) (HPC) 114 % of control and 116 % of control

O=C1OC(c2ccccc2)=N/C1=C\c1ccc(/C=C2/N=C(c3ccccc3)OC2=O)cc1
inactive: dose: 100.0 mg/kg/injection, schedule: Q04DX002 (ip), vehicle: saline with Tween-80 100 % of control | dose: 200.0 mg/kg/injection, schedule: Q04DX002 (ip), vehicle: saline with Tween-80 104 % of control | dose: 400.0 mg/kg/injection, schedule: Q04DX002 (ip), vehicle: saline with Tween-80 95 % of control

CC1(C)N=C(N)N=C(N)N1c1ccc(CNC(=O)Nc2cccc(S(=O)(=O)F)c2)cc1
active: [18] 154 % of control | dose: 150.0 mg/kg/injection, schedule: Q04DX003 (ip), vehicle: saline 168 % of control | dose: 225.0 mg/kg/injection, schedule: Q04DX003 (ip), vehicle: saline 200 % of control

CCCCCCC(/C=C/c1ccc(Cl)c(Cl)c1)=N\Nc1ccc(Cl)cc1Cl
inactive: [11] 94 % of control | [12] 94 % of control | [16] 88 % of control | [17] 87 % of control

CC(=O)N(C)C
inactive: dose: 0.25 % in 0.5 ml injection vol, schedule: Q01DX009 (ip), vehicle: water 102 % of control | dose: 0.5 % in 0.5 ml injection vol, schedule: Q01DX009 (ip), vehicle: water 100 % of control and 102 % of control | dose: 1.0 % in 0.5 ml injection vol, schedule: Q01DX009 (ip), vehicle: water 99 % of control and 102 % of control | dose: 2.0 % in 0.5 ml injection vol, schedule: Q01DX009 (ip), vehicle: water 100 % of control and 101 % of control | dose: 8.0 % in 0.5 ml injection vol, schedule: Q01DX009 (ip), vehicle: water 112 % of control and 113 % of control | dose: 16.0 % in 0.5 ml injection vol, schedule: Q01DX009 (ip), vehicle: water 108 % of control

Nc1nsc2nc3ccccc3cc12
inactive: dose: 6.25 mg/kg/injection, schedule: Q01DX005 (ip), vehicle: Klucel (hydroxypropylcellulose) (HPC) 102 % of control | dose: 12.5 mg/kg/injection, schedule: Q01DX005 (ip), vehicle: Klucel (hydroxypropylcellulose) (HPC) 100 % of control | dose: 25.0 mg/kg/injection, schedule: Q01DX005 (ip), vehicle: Klucel (hydroxypropylcellulose) (HPC) 99 % of control | [13] 112 % of control | [14] 102 % of control
